Experimental data as given in patent US20130259829A1, “CLIP INHIBITORS AND METHODS OF MODULATING IMMUNE FUNCTION” (The Regents of the University of Colorado, A Body Corporate, priority 2008, published 2013).
No end group written: not given here. *: point of attachment. Biotin = O=C1N[C@H]2[C@H](CS[C@H]2CCCCC(=O)*)N1

What was measured:
B cell surface CLIP = B cell surface CLIP after 2-Deoxyglucose and dichloroacetate (FIG. 4); assay type: cell-based
[1] = background statement; cited from earlier work
mouse splenic B cells = assay: TLR activation of mouse splenocytes in vitro, ectopic CLIP on B cells (15G4-FITC versus B220); assay type: cell-based; settings: for exogenous CLIP expression on activated mouse B cells: treatment in vitro with toll ligand
Excerpt: Mouse splenocytes or T-depleted splenocytes were red cell depleted using Geys Solution, and cells were counted. For T-depleted B cell preparations, B cells were separated by discontinuous Percoll (Pharmacia LKB Biotechnology, Piscataway, N.J.) gradients (13). Those cells layering at the 1.079/1.085 g/ml interface (1.079<ρ≦1.085) are designated throughout as resting B cells. Cells layering at the BSS/1.066 g/ml interface (ρ≦1.066) are designated as activated. Viable cells from this latter interface were isolated using Lympholyte-M (Cedarlane Laboratories, Ltd., Hornby, Ontario, Canada). Cells from each layer were harvested, washed, and resuspended at 10^7 cells/ml in PBS containing 5% fetal calf serum.
Total splenocytes, from either B6.129, Ii-deficient, or H2M-deficient mice were cultured with LPS for 24, 48, 72, or 96 hours as indicated. Cells were harvested and stained by two-color fluorescence using 15G4-FITC anti-mouse CLIP/I-A^6 versus anti-mouse B220 PE.
Freshly isolated splenocytes, single cell suspensions of lymph node cells, resting (or activated) B cells, or primed B cells were isolated from B6.129, Ii-deficient, or H2M-deficient mice and cultured in 24 well plates in complete RPMI medium, with or without the appropriate Toll ligand, at 10^6 cells/ml. Cells were cultured for 24, 48, 72, 96, or up to 144 hours. Cells were harvested and stained by flow cytometric analysis using either a Beckman Coulter Excel or a Beckman Coulter FC500 flow cytometer. Cells were stained by two-color fluorescence using 15G4-FITC anti-mouse CLIP/I-A^b versus anti-mouse B220 PE. For co-culture experiments (5×10^5) were combined with T cells (5×10^4) in 24 well plates in complete medium, with or without the appropriate antigen. Experiments with 3A9, 2A11 or A6.A2 employed 3 mg/ml tryptic digest of HEL as a source of pre-processed antigen, i.e., peptide. Cultures were incubated overnight at 37° C. in a humidified 5% CO2, 95% air incubator.
(§1) Multi-parameter flow cytometric analysis for the fluorescent detection of ectopic CLIP, mouse B220, human CD19 or CD20, human CLIP, human HLA-DR, and human CLIP or apoptosis were performed using a Beckman Coulter Excel or a Beckman Coulter FC500 flow cytometer (Beckman Coulter, Hialeah, Fla.). Mouse splenic cells were cultured in complete RPMI for the times indicated. Resting, primed, or activated B cells were cultured in the presence of T cells (vide supra). At the end of 16 h of culture, the cells were harvested and washed. Ethidium bromide (detected by red fluorescence) was added immediately before analysis of each tube. The cells were analyzed by first gating using forward vs. side scatter then using increased fluorescence as a measure of detection of the indicated cell surface antigens.

[2] = system: human B cells from peripheral blood mononuclear cells (PBMC); assay: Human PBMC culture with toll ligands with or without peptides, CLIP on B cells; assay type: cell-based; settings: for level of CLIP per B cell / percentage of CLIP+ B cells: PBMC of two donors cultured with R848 for 48 hours
Method: PBMC were prepared from a total of seven adult normal donors, five for examining the effects of TLR binding on the percentage of ectopic CLIP^+ B cells and changes in mean fluorescence intensity of the CLIP staining resulting from TLR stimulation with CpG-ODN, LPS, Pam-3-Cys, and Poly I:C. For these experiments, the cells were cultured at approximately 1×10^6 per ml with each TLR binding ligand added at 5 μg per ml. The other two donors were tissue typed for HLA phenotypes, were cultured with the TLR7/8 agonist CL097 for 48 hours with and without the computationally predicted competitive peptide or the scrambled analogue for 48 hours. For both experiments at the end of the appropriate culture period, cells were harvested and stained for cell surface CLIP using anti-human CLIP-FITC versus MHC class II HLA-DR-PE Cy5, or anti-human CLIP-FITC versus anti-human CD19-PE. Cells were analyzed using either a BD FacsCalibur, for the five samples, or a Coulter FC500 for the two tissue typed samples.
as §1
Because CLIP affinity for MHC class II molecules is allele dependent, the MHCPred (http://www.jenner.ac.uk/MHCPred/) and NetMHC (http://www.cbs.dtu.dk/services/NetMHC/) databases was used to determine binding affinities between CLIP for molecules encoded by either mouse or human MHC alleles. […] For human studies, PBMC were collected from donors, most of whose MHC tissue types (alleles for HLA-DR, DP, DQ, HLA-A, and HLA-B) were identified. The cells were cultured in the presence or absence of the TLR7/8-binding compound R848 (CLO97, Invivogen) for 48 hours. The cells were cultured in the presence or absence of VGV-hB peptide versus a control peptide of equal length (referred to henceforth as VGV-pB, whose binding depends upon the MHC allele/polymorphism of the individual) (FIGS. 13d and 13e). […] Considering polymorphic differences in MHC alleles between the two individuals, the ability of a given peptide to replace CLIP may vary as a function of the polymorphism between the two people. Data are representative of five different experiments performed over several months.

B6.129 (H-2b) mice [3] = assay: CpG-ODN injected B6.129 mice with or without peptide (TLR-induced chronic hyperimmune activation); assay type: in vivo, mouse
Method: C57Bl6 and B6.129 mice were injected with CpG-oligo-deoxynucleotide (CpG-ODN (25 μg per mouse)). After 24, 72, or 96 hours, animals were humanely killed; spleens and lymph nodes were removed. The spleens and lymph nodes were passed through nylon mesh to recover single cell suspensions, and the cells were counted. Cells were stained as indicated and analyzed flow cytometrically using a Beckman Coulter Excel or Coulter FC500 flow cytometer.
as §1
Cell death was measured either by flow cytometric detection of forward versus side scatter or by DNA fragmentation. DNA fragmentation was quantified by terminal deoxynucleotidyl transferase (TdT; Promega, Madison, Wis.)-mediated fluorescein-12-deoxyuridine triphosphate (FITC-dUTP; Boehinger Mannheim Corporation, Indianapolis, Ind.) addition to the terminal 3′-OH ends of fragmented DNA (TUNEL assay) as previously described (18). Resting B cells (1×10^6) were combined with 1×10^5 T hybridoma cells, with or without antigen, and cultured for 16-17 h. The cultures were harvested and washed twice in PBS-2% FBS at 4° C. Subsequently, cells were incubated for 30 min at 4° C. in PBS-2% FBS […] Cells were washed in PBS and fixed in 1.5% paraformaldehyde in PBS (pH 7.4) for 1 h at 4° C. Cells were thoroughly washed in PBS and were resuspended in 50 μl of a reaction mixture containing the following: 5 units TdT, 0.1-0.2 nM FITC-dUTP and 1 nM each dATP, dCTP, and dGTP in 100 mM cacodylate buffer (pH 6.8) with 1 mM CoCl2 and 0.1 mg/ml BSA. Reactions were incubated for 1 h at 37° C. and stopped by washing with 0.25 M EDTA in Tris buffer (pH 7.4). Cells were then analyzed for two color fluorescence on the FC500.
Using mouse models for quantitative analysis of TLR-induced CHA, B6.129 (H-2^b) mice were injected with CpG-ODN alone or CpG-ODN in combination with VGV-hB. […] Because the binding constant of a peptide is also function of concentration, B6.129 mice were injected with peptide; either VGV-hB or VGV-sB, ranging in dose from 0.25, 2.5, 25, and 50 micrograms of peptide per mouse, (FIGS. 14c and 14d).

B6.129 (H-2b) mice [4] = assay: as above; assay type: in vivo, mouse; settings: CpG-ODN alone or with peptide, 48 hours
[5] = system: human B cell lines, Raji and Daudi; assay: Synthetic peptide binding and competition with CLIP on B cell lines (anti-human CLIP Fitc versus Streptavidin); assay type: cell-based; settings: for cell surface bound CLIP (Fitc-Anti-CLIP): biotinylated competing peptide, 50 microMolar
Excerpt: Based on a computational model comparing the peptide content of TNP mixture and identifying those peptides that would have the likeliest ability to compete for the peptide/antigen binding site for MHC class II (human HLA-DR, DP, and DQ), several peptide candidates were synthesized and examined for activity. The purpose of the study was to determine if synthetic peptides can compete for binding with CLIP peptides as measured with either Fitc anti-human CLIP antibody or, comparatively in the case of biotinylated peptides, with Streptavidin.
Cell Culture Conditions: The Raji and Daudi cell lines were purchased from American Type Culture Collection, were thawed, and grown in RPMI 1640 medium supplemented with standard supplements, including 10% fetal calf serum, gentamycin, penicillin, streptomycin, sodium pyruvate, HEPES buffer, 1-glutamine, and 2-ME.
Protocol: Cells were plated into a 12 well plate with 3 mls total volume containing approximately 1.5×10^6/well for Daudi cells and 3.0×10^6/well for Raji cells. Treatment groups included no treatment as control; MKN 3 and MKN 5 at 50 microMolar final concentration based on the reported molarity of the synthesized compounds.
The cells were incubated at 37° C. in an atmosphere containing 5% CO2 and approximately 92% humidity. The cells were incubated for 4 and 24 hours. At each time point, the cells from that experimental time were harvested and stained for flow cytometric analysis of cell surface expression of CLIP (MHC Class II invariant peptide, human) by using the commercially available (Becton/Dickinson/PHarmingen) anti-human CLIP Fitc. Catalogue #555981 versus Streptavidin.
Harvested cells were stained using standard staining procedure that called for a 1:100 dilution of Fitc-anti-human CLIP or isotype control versus 1:200 dilution of the commercially prepared Streptavidin. Following staining on ice for 25 minutes, cells were washed with PBS/FCS and resuspended in 100 microliters and added to staining tubes containing 400 microliters of PBS. Samples were acquired and analyzed on a Coulter Excel Flow Cytometer.
In the Histogram analyses of FIGS. 5-7 the Y axis represents cell number of the 5000 live cells versus the X axis which is a reflection of relative Fitc fluorescence versus Streptavidin-PE (eBioscience, Cat. #12-4317) that will bind with high affinity to cell-bound biotinylated peptides. The distance between the histogram from the isotype control staining versus the histogram reflecting the specific stain and is a measure of level of cell surface CLIP or the biotinylated peptide when stained with Streptavidin on a population of live Raji or Daudi cells as indicated.

[6] = peptide in combination with TLR 9 stimulation (CpG-ODN)

O=CC[C@@H](O)[C@H](O)[C@H](O)CO [2-Deoxyglucose]
B cell surface CLIP (B cell surface CLIP): affects B cell surface CLIP

C=CC[C@@H]1/C=C(\C)C[C@H](C)C[C@H](OC)[C@H]2O[C@@](O)(C(=O)C(=O)N3CCCC[C@H]3C(=O)O[C@H](/C(C)=C/[C@@H]3CC[C@@H](O)[C@H](OC)C3)[C@H](C)[C@@H](O)CC1=O)[C@H](C)C[C@@H]2OC [FK506, tacrolimus]
immunosuppressive activity relative to cyclosporin [1]: 10-100 times

CCOCc1nc2c(N)nc3ccccc3c2n1CC(C)(C)O [R848, imidazoquinoline resiquimod]
exogenous CLIP expression on activated mouse B cells (mouse splenic B cells): resulted in exogenous CLIP expression

(S)-(2,3-bis(palmitoyloxy)-(2RS)-propyl)-N-palmitoyl-(R)-Cys-(S)-Ser(S)-Lys4-OH, trihydrochloride [Pam3Cys]
exogenous CLIP expression on activated mouse B cells (mouse splenic B cells): resulted in exogenous CLIP expression

ANSGIIGDITEEVGGQY [VGV-pB]
level of CLIP per B cell [2]: reduced the frequency of CLIP^+ B cells and the level of CLIP per cell in one individual but not the other
percentage of CLIP+ B cells [2]: reduced the frequency of CLIP^+ B cells and the level of CLIP per cell in one individual but not the other

FRIMAVLAS [VGV-hB]
reversal of CpG-ODN activation incl. percent of CLIP+ B cells from total spleen (peptide titration) (B6.129 (H-2b) mice [3]; 0.25, 2.5, 25, and 50 micrograms of peptide per mouse): reversed the effecs of CpG-ODN activation
CD4+ FoxP3+ Tregs in the lymph nodes (B6.129 (H-2b) mice [3]; CpG-ODN injection in vivo, without or with peptide): reversible
effect of CpG-ODN on total cell numbers, absolute numbers of B cells, and CLIP+ B cell distribution between spleen and lymph node (B6.129 (H-2b) mice [3]; CpG-ODN with peptide, 24, 72, 96 hours): reduced
CD8+ T cells (B6.129 (H-2b) mice [3]; CpG-ODN with peptide, interpretation in discussion): promotes expansion
B cell death (B6.129 (H-2b) mice [3]; [6]): increased B cell death
number of live CD4+ T cells (B6.129 (H-2b) mice [3]; [6]): moderate increase
splenic B lymphocytes and splenic CLIP+ B cells (B6.129 (H-2b) mice [4]): reversed the effects of CPG alone
level of CLIP per B cell [2]: reduced the percentage of CLIP^+ B cells and the level of CLIP per B cell to pre-treatment levels
percentage of CLIP+ B cells [2]: reduced the percentage of CLIP^+ B cells and the level of CLIP per B cell to pre-treatment levels

FRIMAVLASSGGGANSGFRIMAVLASGGQY [MKN.3]
cell surface bound CLIP (Fitc-Anti-CLIP) ([5]; 4 hours): small decreases
cell surface bound CLIP (Fitc-Anti-CLIP) ([5]; 24 hours): significant decreases

SGGGKALVQNDTLLQVKG (not fully specified (N-terminus); also: biotinylated, position not given here) [MKN.5]
cell surface bound CLIP (Fitc-Anti-CLIP) ([5]; 4 hours): small decreases
cell surface bound CLIP (Fitc-Anti-CLIP) ([5]; 24 hours): significant decreases

SGGGSKMRMATPLLMQALY (Biotin-SGGGSKMRMATPLLMQALY) [MKN.1]
cell surface CLIP and CD74 levels ([5]; Raji or Daudi cells): alters cell surface CLIP and CD74 levels

lipopolysaccharide [LPS]
exogenous CLIP associated with MHC class II on splenic B cells (mouse splenic B cells; in vitro stimulation of resting mouse splenocytes, 0 to 72 hours): time-dependent increase
exogenous CLIP expression on activated mouse B cells (mouse splenic B cells): resulted in exogenous CLIP expression
ectopic CLIP on human B cells ([2]; PBMC from five healthy donors, toll ligand 5 ug per ml, 24 hours): Statistically significant increases

polyinosinic:polycytidylic acid [Poly I:C]
exogenous CLIP expression on activated mouse B cells (mouse splenic B cells): resulted in exogenous CLIP expression
